PMC3034214, “Inhibition of Escherichia coli glycosyltransferase MurG and Mycobacterium tuberculosis Gal transferase by uridine-linked transition state mimics” (Bioorganic & Medicinal Chemistry, 2010)

Key:
[1] = system: Mycobacterium tuberculosis galactosyltransferase GlfT2; assay: Galactosyltransferase assay ([14C]Gal incorporation into Galf(β1→6)Galf-O-C8 acceptor, membranes and cell wall fraction); format: biochemical; settings: read-out: Percentage inhibition of Mt GTase (Mycobacterium tuberculosis galactosyl transferase)
Text: The arabinogalactan cell wall polymer of M. tuberculosis is biosynthesised through the action of a series of glycosyltransferases,[16] several of which use UDP-sugar substrates, and therefore might be inhibited by this class of compound. We have characterised a UDP-galactose-dependent galactosyltransferase activity GlfT2, which can be assayed using specific neoglycolipid acceptors in the presence of membranes and Galf(β1→6)Galf-O-C8 resulting in excellent [[14]C]Galf incorporation from UDP-[^14C]Galp, following endogenous conversion to UDP-[^14C]Galf and transferase activity (Fig. 4).[17] […] The complete chemical characterisation of the enzymatically synthesised products along with the identity of the galactosyltransferase gene product were previously reported.[17]
Liquid cultures of Mycobacterium smegmatis mc^2155 were grown at 37 °C in Luria Bertoni (LB) broth medium (Difco) supplemented with 0.05% Tween 80, biomass harvested, washed with phosphate buffered saline (PBS) and stored at −20 °C until further use. M. smegmatis cells (10 g wet weight) were washed and re-suspended in 30 ml of buffer A, containing 50 mM MOPS (adjusted to pH 8.0 with KOH), 5 mM β-mercaptoethanol and 10 mM MgCl2 at 4 °C and subjected to probe sonication (Soniprep 150, MSE Sanyo Gallenkamp, Crawley, Sussex, UK; 1 cm probe) for a total time of 10 min in 60 s pulses and 90 s cooling intervals between pulses. The sonicate centrifuged at 27,000g for 60 min at 4 °C. The resulting mycobacterial cell wall pellets were re-suspended in buffer A. Percoll (Pharmacia, Sweden) was added to yield a 60% suspension and centrifuged at 27,000g for 1 h at 4 °C. The upper, particulate diffuse cell wall enzymatically active (P60) band was collected and washed three times with buffer A and re-suspended in buffer A at a final protein concentration of 10 mg/ml. Membrane fractions were obtained by centrifugation of the 27,000g supernatant at 100,000g for 1 h at 4 °C. The supernatant was carefully removed and the membranes gently re-suspended in buffer A at a protein concentration of 20 mg/ml. Protein concentrations were determined using the BCA Protein Assay Reagent kit (Pierce Europe, Oud-Beijerland, Netherlands).
The reaction mixtures were then incubated at 37 °C for 1 h. A CHCl3/CH3OH (1:1, 533 μl) solution was then added to the incubation tubes and the entire contents centrifuged at 18,000g. The supernatant was recovered and dried under a stream of argon and re-suspended in C2H5OH/H2O (1:1, 1 ml) and loaded onto a pre-equilibrated (C2H5OH/H2O [1:1]) 1 ml Whatmann strong anion exchange (SAX) cartridge which was washed with 3 ml of ethanol. The eluate was dried and the resulting products partitioned between the two phases arising from a mixture of n-butanol (3 ml) and H20 (3 ml). The resulting organic phase was recovered following centrifugation at 3,500g and the aqueous phase was again extracted twice with 3 ml of n-butanol saturated water, the pooled extracts were back-washed twice with water saturated with n-butanol (3 ml). The n-butanol–saturated water fraction was dried and re-suspended in 200 μl of n-butanol. The total cpm of radiolabeled material extractable into the n-butanol phase was measured by scintillation counting using 10% of the labelled material and 10 ml of EcoScintA (National Diagnostics, Atlanta). The incorporation of [^14C]Gal was determined by subtracting counts present in control assays (incubation of the reaction components in the absence of the compounds).

E. coli MurG = E. coli MurG (Escherichia coli, UniProt P17443); assay: Coupled radiochemical MraY/MurG assay ([3H]-UDPGlcNAc incorporation into lipid intermediate II); settings: for inhibition at 1000 µM: read-out: Percentage inhibition of E. coli MurG
E. coli = assay: Antibacterial testing, growth in LB in 96-well plates (OD 595 nm); format: cell-based, Escherichia coli; settings: E. coli BL21
Micrococcus luteus = assay: as above; settings: read-out: Growth inhibition of M. luteus
Experimental: (§1) The following procedure was performed using P. putida (ATCC 33015), M. luteus (ATCC 13513), E. coli BL21 and B. subtilis W23. A single colony of the bacterial strain was picked from an LB agar plate and grown in 10 ml of sterile LB medium overnight at 37 °C. 1 ml of this culture was then used to inoculate 50 ml of sterile LB medium at 2%. Hundred microlitres of this 2% culture was pipetted into each well of a 96-well plate. Hundred microlitres of sterile water or sterile aqueous inhibitor solution (200 μg/ml or 1 mg/ml) were then pipetted into each well and the 96-well plates were incubated at 37 °C. Bacterial growth was monitored by measuring the OD at 595 nm at 3, 6 and 24 h.

Pseudomonas putida = assay: as above; settings: ATCC 33015
Experimental: as §1

B. subtilis = assay: as above; settings: B. subtilis W23
Experimental: as §1

Chain of E. coli MurG (P17443 whole entry): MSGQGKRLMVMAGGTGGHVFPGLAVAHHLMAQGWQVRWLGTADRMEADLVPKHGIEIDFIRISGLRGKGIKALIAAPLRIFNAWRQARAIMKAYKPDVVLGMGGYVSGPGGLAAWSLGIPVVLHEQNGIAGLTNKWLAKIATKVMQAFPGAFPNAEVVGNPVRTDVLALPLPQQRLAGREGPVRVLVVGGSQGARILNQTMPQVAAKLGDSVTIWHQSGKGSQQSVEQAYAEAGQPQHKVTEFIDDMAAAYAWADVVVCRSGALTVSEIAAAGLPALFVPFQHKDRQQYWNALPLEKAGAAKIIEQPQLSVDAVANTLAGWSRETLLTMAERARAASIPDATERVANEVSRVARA
Chain of Mycobacterium tuberculosis galactosyltransferase GlfT2 (A0R628 whole entry): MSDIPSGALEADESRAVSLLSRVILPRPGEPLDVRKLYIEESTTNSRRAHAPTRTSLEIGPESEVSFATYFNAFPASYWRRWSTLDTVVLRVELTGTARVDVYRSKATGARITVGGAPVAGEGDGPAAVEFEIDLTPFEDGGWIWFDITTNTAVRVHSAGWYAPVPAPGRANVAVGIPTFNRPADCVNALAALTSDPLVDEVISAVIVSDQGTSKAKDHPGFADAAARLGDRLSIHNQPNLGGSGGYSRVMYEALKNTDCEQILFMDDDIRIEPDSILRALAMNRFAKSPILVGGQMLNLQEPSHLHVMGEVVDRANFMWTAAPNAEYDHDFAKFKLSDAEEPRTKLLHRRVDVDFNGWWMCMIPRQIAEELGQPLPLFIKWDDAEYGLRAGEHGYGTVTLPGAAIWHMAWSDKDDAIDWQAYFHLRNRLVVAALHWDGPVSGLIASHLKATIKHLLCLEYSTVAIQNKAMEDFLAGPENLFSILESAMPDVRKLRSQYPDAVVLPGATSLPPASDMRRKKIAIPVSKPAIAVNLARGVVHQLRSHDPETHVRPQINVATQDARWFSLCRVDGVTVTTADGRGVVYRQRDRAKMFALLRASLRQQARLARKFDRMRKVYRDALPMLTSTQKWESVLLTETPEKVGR

Compound | inhibition at 1000 µM [1] | inhibition at 1000 µM (E. coli MurG) | also measured
COC(=O)[C@H]1[C@@H](c2ccccc2OC)N[C@@](C)(C(=O)N2CCC[C@H]2C(=O)NC[C@H]2O[C@@H](n3ccc(=O)[nH]c3=O)[C@H](O)[C@@H]2O)[C@H]1C(=O)OC (mixture of isomers) [20b] | 0% | 0% | –
ramoplanin [reference compound] | – | – | Inhibition of MurG (E. coli MurG; 20 μM ramoplanin): > 90%
COC(=O)C1C(c2ccc(OC)c(OC)c2)NC2(C)C(=O)N(CC(=O)NCC3OC(n4ccc(=O)[nH]c4=O)C(O)C3O)C(=O)C12 (centres unmarked) [16d] | 0% | 26% | IC50 (E. coli MurG): 4 mM
COC(=O)[C@H]1[C@@H](c2ccccc2OC)N[C@@](C)(C(=O)N2CCC[C@H]2C(=O)NC[C@H]2O[C@@H](n3ccc(=O)[nH]c3=O)[C@H](O)[C@@H]2O)[C@@H]1C(=O)OC (mixture of isomers) [20c] | 0% | 22% | –
CCN1C(=O)C2[C@@H](C1=O)[C@@H](C(O)CO)N[C@@]2(C)C(=O)N1CCC[C@H]1C(=O)NC[C@H]1O[C@@H](n2ccc(=O)[nH]c2=O)[C@H](O)[C@@H]1O (mixture of isomers) [20d] | 0% | 0% | –
C[C@@]1(C(=O)NCC(=O)NC[C@H]2O[C@@H](n3ccc(=O)[nH]c3=O)[C@H](O)[C@@H]2O)N[C@H](C(O)CO)[C@@H]2C(=O)N(c3ccccc3)C(=O)[C@@H]21 (mixture of isomers) [13e] | 0% | 0% | –
COc1ccccc1[C@H]1N[C@@](C)(C(=O)NCC(=O)NC[C@H]2O[C@@H](n3ccc(=O)[nH]c3=O)[C@H](O)[C@@H]2O)[C@H]2C(=O)N(c3ccccc3)C(=O)[C@@H]12 (mixture of isomers) [13b] | 0% | 85% | Antibacterial activity against E. coli (in words) (E. coli): no effects; inhibition at 100 µg/mL (Micrococcus luteus): 50%; Antibacterial activity against Pseudomonas putida (in words) (Pseudomonas putida): no effects; Antibacterial activity against B. subtilis (in words) (B. subtilis): no effects; IC50 (E. coli MurG): 0.4 mM
COC(=O)[C@H]1[C@@H](c2ccccc2OC)N[C@@](C)(C(=O)NCC(=O)NC[C@H]2O[C@@H](n3ccc(=O)[nH]c3=O)[C@H](O)[C@@H]2O)[C@@H]1C(=O)OC (mixture of isomers) [14b] | 0% | 32% | IC50 (E. coli MurG): > 5 mM
COc1ccccc1[C@@H]1[C@@H]2C(=O)N(c3ccccc3)C(=O)[C@@H]2[C@H](C(=O)N(C)CC(=O)NC[C@H]2O[C@@H](n3ccc(=O)[nH]c3=O)[C@H](O)[C@@H]2O)N1C [compound 19] | – | 31% | Inhibition of / binding to MurG (in words) (E. coli MurG): did bind to MurG
COC(=O)[C@H]1[C@@H](c2ccccc2)N[C@@](C)(C(=O)NCC(=O)NC[C@H]2O[C@@H](n3ccc(=O)[nH]c3=O)[C@H](O)[C@@H]2O)[C@@H]1C(=O)OC (mixture of isomers) [14a] | – | 0% | –
COc1ccccc1[C@H]1N[C@@](C)(COC(=O)CC(=O)OC[C@H]2O[C@@H](n3ccc(=O)[nH]c3=O)[C@H](O)[C@@H]2O)[C@H]2C(=O)N(c3ccccc3)C(=O)[C@@H]12 [compound 24] | 0% | 17% | Inhibition of / binding to MurG (in words) (E. coli MurG): weak activity
COc1cccc([C@H]2N[C@@](C)(C(=O)NCC(=O)NC[C@H]3O[C@@H](n4ccc(=O)[nH]c4=O)[C@H](O)[C@@H]3O)[C@H]3C(=O)N(c4ccccc4)C(=O)[C@@H]23)c1OC (mixture of isomers) [13c] | 0% | 0% | –
COC(=O)C1C(C(O)CO)NC2(C)C(=O)N(CC(=O)NCC3OC(n4ccc(=O)[nH]c4=O)C(O)C3O)C(=O)C12 (mixture of isomers) [15e] | – | 27% | IC50 (E. coli MurG): > 5 mM
COc1ccccc1[C@H]1N[C@@](C)(COC(=O)CCC(=O)OC[C@H]2O[C@@H](n3ccc(=O)[nH]c3=O)[C@H](O)[C@@H]2O)[C@H]2C(=O)N(c3ccccc3)C(=O)[C@@H]12 (mixture of isomers) [compound 25] | 0% | 15% | Inhibition of / binding to MurG (in words) (E. coli MurG): weak activity
